Data: patent US20250144067A1, “PERSONALIZED STARVATION THERAPY FOR CANCER” (Faeth Therapeutics, Inc., priority 2021, published 2025)
Structures can show the parent of a compound that is named as a salt.

Experiments:
[1] = test system: NCI-H292 lung cancer cells; assay: FDA drug screening, complete media vs cholesterol-free media without statin (TABLE 1); type: cell-based, human
[2] = test system: NCI-H292 lung cancer cells; assay: FDA drug screening, complete media vs cholesterol-free media with simvastatin (TABLE 2); type: cell-based, human; settings: for Cholesterol-free media + simvastatin (0.04 μM) / Complete Media: NCI-H292 cells
[3] = Complete minus Cholesterol-free, greater than 0 enhanced anti-cancer activity, about 0 neutral, below 0 antagonists
[4] = NCI-H292 cells in cholesterol-free media without statin
[5] = NCI-H292 cells in complete media
[6] = FDA drug library screen, cholesterol-free media with simvastatin 0.04 μM
[7] = FDA drug library screen, complete media
[8] = complete media minus cholesterol-free media + simvastatin, >0 enhanced anti-cancer activity, about 0 neutral, <0 antagonist
[9] = Complete minus Cholesterol-free, >0 enhanced anti-cancer activity, about 0 neutral, <0 antagonist
[10] = NCI-H292 cells, cholesterol-free media without statin, FDA drug library screen
[11] = NCI-H292 cells, complete media, FDA drug library screen
[12] = complete media vs cholesterol-free media + simvastatin (0.04 μM), >0 enhanced anti-cancer activity, about 0 neutral, <0 antagonist
[13] = Complete minus Cholesterol-free, […]
[14] = NCI-H292 cells, cholesterol-free media without statin
[15] = FDA library drug in cholesterol-free media with simvastatin 0.04 μM
[16] = FDA library drug in complete media
[17] = complete media vs cholesterol-free media + simvastatin (0.04 μM), […]
[18] = NCI-H292 cells, FDA drug library screen, cholesterol-free media without statin
[19] = NCI-H292 cells, FDA drug library screen, complete media
[20] = cholesterol-free media with simvastatin 0.04 μM, FDA drug library screen (TABLE 2)
[21] = complete media, FDA drug library screen (TABLE 2)
[22] = complete media minus cholesterol-free media + simvastatin (0.04 μM), >0 enhanced anti-cancer activity, about 0 neutral, <0 antagonist
[23] = complete vs cholesterol-free media, greater than 0 enhanced anti-cancer activity, about 0 neutral, below 0 antagonists
[24] = Complete minus Cholesterol-free, greater than 0 enhanced anti-cancer activity, about 0 neutral, below 0 antagonist
[25] = cholesterol-free media with simvastatin 0.04 μM, cell growth value in FDA drug screen
[26] = complete media, cell growth value in FDA drug screen
[27] = complete vs cholesterol-free media, >0 enhanced anti-cancer activity, about 0 neutral, <0 antagonist
[28] = drug in cholesterol-free media with simvastatin 0.04 μM

CC[C@@H]([C@H](C)O)n1ncn(-c2ccc(N3CCN(c4ccc(OC[C@@H]5CO[C@@](Cn6cncn6)(c6ccc(F)cc6F)C5)cc4)CC3)cc2)c1=O [Posaconazole]
Difference [1, 3]: −0.60
Cholesterol-free [1, 4]: 1.481
Complete [1, 5]: 0.8852
Cholesterol-free media + simvastatin (0.04 μM) [2, 6]: 1.5
Complete Media [2, 7]: 1.904
Difference [2, 8]: 0.40

C#CCC(Cc1cnc2nc(N)nc(N)c2n1)c1ccc(C(=O)N[C@@H](CCC(=O)O)C(=O)O)cc1 (stereo partly drawn) [Pralatrexate]
Difference [1, 9]: 0.03
Cholesterol-free [1, 10]: 0.04874
Complete [1, 11]: 0.07794
Cholesterol-free media + simvastatin (0.04 μM) [2, 6]: 0.194
Complete Media [2, 7]: 0.0957
Difference [2, 12]: −0.10

C[n+]1ccccc1/C=N/O.[Cl-] [Pralidoxime (chloride)]
Difference [1, 13]: −0.31
Cholesterol-free [1, 14]: 1.203
Complete ([1]; NCI-H292 cells, complete media): 0.8976
Cholesterol-free media + simvastatin (0.04 μM) [2, 15]: 1.051
Complete Media [2, 16]: 0.7574
Difference [2, 17]: −0.29

C[n+]1ccccc1C=NO.[I-] [Pralidoxime (iodide)]
Difference [1, 13]: −0.07
Cholesterol-free [1, 18]: 1.049
Complete [1, 19]: 0.9757
Cholesterol-free media + simvastatin (0.04 μM) [2, 6]: 0.9948
Complete Media [2, 7]: 0.8823
Difference [2, 17]: −0.11

CCCN[C@H]1CCc2nc(N)sc2C1 [Pramipexole (dihydrochloride hydrate)]
Difference [1, 9]: 0.05
Cholesterol-free [1, 10]: 0.8255
Complete [1, 11]: 0.873
Cholesterol-free media + simvastatin (0.04 μM) [2, 6]: 1.173
Complete Media [2, 7]: 1.35
Difference [2, 8]: 0.18

CCCN[C@H]1CCc2nc(N)sc2C1 [Pramipexole (dihydrochloride)]
Difference [1, 3]: −0.49
Cholesterol-free [1, 4]: 1.504
Complete [1, 5]: 1.014
Cholesterol-free media + simvastatin (0.04 μM) [2, 20]: 0.885
Complete Media [2, 21]: 0.866
Difference [2, 22]: −0.02

CCCN[C@H]1CCc2nc(N)sc2C1 [Pramipexole]
Difference [1, 3]: −0.68
Cholesterol-free [1, 4]: 1.519
Complete [1, 5]: 0.8353
Cholesterol-free media + simvastatin (0.04 μM) [2, 20]: 1.074
Complete Media [2, 21]: 1.035
Difference [2, 22]: −0.04

CC(C)N(CCNC(=O)CN1CCCC1=O)C(C)C [Pramiracetam]
Difference [1, 13]: −0.05
Cholesterol-free [1, 10]: 1.059
Complete [1, 11]: 1.007
Cholesterol-free media + simvastatin (0.04 μM) ([2]; cholesterol-free media with simvastatin 0.04 μM, […]): 0.8266
Complete Media ([2]; complete media, […]): 0.938
Difference ([2]; complete media minus cholesterol-free media + simvastatin, […]): 0.11

CCCCOc1ccc(OCCCN2CCOCC2)cc1 [Pramocaine (hydrochloride)]
Cholesterol-free [1, 14]: 1.301
Complete ([1]; NCI-H292 cells, complete media): 0.9298
Difference [1, 23]: −0.37
Cholesterol-free media + simvastatin (0.04 μM) [2, 6]: 0.6469
Complete Media [2, 7]: 1.047
Difference [2, 8]: 0.40

O=C(Nc1cccc2c(=O)cc(-c3nnn[nH]3)oc12)c1ccc(OCCCCc2ccccc2)cc1 [Pranlukast (hemihydrate)]
Difference [1, 24]: −0.10
Cholesterol-free [1, 18]: 1.075
Complete [1, 19]: 0.9755
Cholesterol-free media + simvastatin (0.04 μM) [2, 25]: 1.189
Complete Media [2, 26]: 1.285
Difference [2, 8]: 0.10

O=C(Nc1cccc2c(=O)cc(-c3nnn[nH]3)oc12)c1ccc(OCCCCc2ccccc2)cc1 [Pranlukast]
Difference [1, 24]: −0.10
Cholesterol-free [1, 18]: 0.9973
Complete [1, 19]: 0.8953
Cholesterol-free media + simvastatin (0.04 μM) [2, 6]: 0.7995
Complete Media [2, 7]: 1.23
Difference [2, 8]: 0.43

CC(C(=O)O)c1ccc2c(c1)Cc1cccnc1O2 (stereo not drawn) [Pranoprofen]
Cholesterol-free [1, 10]: 0.6134
Complete [1, 11]: 1.137
Difference [1, 27]: 0.52
Cholesterol-free media + simvastatin (0.04 μM) [2, 15]: 1.474
Complete Media [2, 16]: 1.136
Difference [2, 12]: −0.34

CC(=O)Oc1cc2c(s1)CCN(C(C(=O)C1CC1)c1ccccc1F)C2 (stereo not drawn) [Prasugrel (hydrochloride)]
Cholesterol-free [1, 10]: 0.9393
Complete [1, 11]: 1.044
Difference [1, 27]: 0.10
Cholesterol-free media + simvastatin (0.04 μM) [2, 28]: 1.213
Complete Media ([2]; drug in complete media): 1.05
Difference [2, 12]: −0.16

CC(=O)Oc1cc2c(s1)CCN(C(C(=O)C1CC1)c1ccccc1F)C2 (stereo not drawn) [Prasugrel]
Cholesterol-free [1, 10]: 1.483
Complete [1, 11]: 1.769
Difference [1, 27]: 0.29
Cholesterol-free media + simvastatin (0.04 μM) [2, 6]: 1.012
Complete Media [2, 7]: 0.9091
Difference [2, 12]: −0.10

CC[C@H](C)C(=O)O[C@H]1C[C@H](O)C=C2C=C[C@H](C)[C@H](CC[C@@H](O)C[C@@H](O)CC(=O)[O-])[C@H]21.[Na+] [Pravastatin (sodium)]
Difference [1, 3]: −0.48
Cholesterol-free [1, 4]: 1.713
Complete [1, 5]: 1.238
Cholesterol-free media + simvastatin (0.04 μM) [2, 25]: 1.193
Complete Media [2, 26]: 1.235
Difference [2, 8]: 0.04

O=C(C1CCCCC1)N1CC(=O)N2CCc3ccccc3C2C1 (stereo not drawn) [Praziquantel]
Cholesterol-free [1, 14]: 1.485
Complete ([1]; NCI-H292 cells, complete media): 1.043
Difference [1, 23]: −0.44
Cholesterol-free media + simvastatin (0.04 μM) [2, 15]: 1.644
Complete Media [2, 16]: 1.108
Difference [2, 12]: −0.54

COc1cc2nc(N3CCN(C(=O)c4ccco4)CC3)nc(N)c2cc1OC [Prazosin (hydrochloride)]
Difference [1, 3]: −0.52
Cholesterol-free [1, 4]: 1.627
Complete [1, 5]: 1.105
Cholesterol-free media + simvastatin (0.04 μM) [2, 6]: 1.23
Complete Media [2, 7]: 1.079
Difference [2, 12]: −0.15

CC(C)(C)CC(=O)OCC(=O)[C@@]1(O)CC[C@H]2[C@@H]3CCC4=CC(=O)C=C[C@]4(C)[C@H]3[C@@H](O)C[C@@]21C [Prednisolone Tebutate]
Cholesterol-free [1, 14]: 1.01
Complete ([1]; NCI-H292 cells, complete media): 0.6634
Difference [1, 23]: −0.35
Cholesterol-free media + simvastatin (0.04 μM) [2, 20]: 0.7311
Complete Media [2, 21]: 0.7398
Difference [2, 22]: 0.01

CC(=O)OCC(=O)[C@@]1(O)CC[C@H]2[C@@H]3CCC4=CC(=O)C=C[C@]4(C)[C@H]3[C@@H](O)C[C@@]21C [Prednisolone acetate]
Cholesterol-free [1, 14]: 0.9263
Complete ([1]; NCI-H292 cells, complete media): 0.6003
Difference [1, 23]: −0.33
Cholesterol-free media + simvastatin (0.04 μM) [2, 6]: 0.7463
Complete Media [2, 7]: 0.6367
Difference [2, 12]: −0.11

C[C@]12C=CC(=O)C=C1CC[C@@H]1[C@@H]2[C@@H](O)C[C@@]2(C)[C@H]1CC[C@]2(O)C(=O)CO [Prednisolone]
Difference [1, 9]: −0.02
Cholesterol-free [1, 10]: 0.4941
Complete [1, 11]: 0.4768
Cholesterol-free media + simvastatin (0.04 μM) [2, 28]: 0.6412
Complete Media ([2]; drug in complete media): 0.4437
Difference [2, 12]: −0.20

CC(=O)OCC(=O)[C@@]1(O)CC[C@H]2[C@@H]3CCC4=CC(=O)C=C[C@]4(C)[C@H]3C(=O)C[C@@]21C [Prednisone acetate]
Difference [1, 13]: −0.20
Cholesterol-free [1, 14]: 0.9782
Complete ([1]; NCI-H292 cells, complete media): 0.7806
Cholesterol-free media + simvastatin (0.04 μM) [2, 15]: 0.9605
Complete Media [2, 16]: 0.6606
Difference [2, 17]: −0.30

C[C@]12C=CC(=O)C=C1CC[C@@H]1[C@@H]2C(=O)C[C@@]2(C)[C@H]1CC[C@]2(O)C(=O)CO [Prednisone]
Difference [1, 3]: −0.52
Cholesterol-free [1, 4]: 1.522
Complete [1, 5]: 1.002
Cholesterol-free media + simvastatin (0.04 μM) [2, 25]: 0.9598
Complete Media [2, 26]: 1.028
Difference [2, 8]: 0.07

CC(=O)C1CCC2C3CC=C4CC(OS(=O)(=O)O)CCC4(C)C3CCC12C (stereo not drawn) [Pregnenolone monosulfate]
Difference [1, 13]: −0.11
Cholesterol-free [1, 18]: 1.032
Complete [1, 19]: 0.9202
Cholesterol-free media + simvastatin (0.04 μM) [2, 20]: 1.305
Complete Media [2, 21]: 1.254
Difference ([2]; complete media minus cholesterol-free media + simvastatin (0.04 μM), […]): −0.05

CC(=O)[C@H]1CC[C@H]2[C@@H]3CC=C4C[C@@H](O)CC[C@]4(C)[C@H]3CC[C@]12C [Pregnenolone]
Difference [1, 13]: −0.56
Cholesterol-free [1, 4]: 1.529
Complete [1, 5]: 0.9655
Cholesterol-free media + simvastatin (0.04 μM) [2, 15]: 1.424
Complete Media [2, 16]: 0.9118
Difference [2, 17]: −0.51

O=[N+]([O-])c1cn2c(n1)OC[C@@H](OCc1ccc(OC(F)(F)F)cc1)C2 [Pretomanid]
Difference [1, 9]: −0.21
Cholesterol-free [1, 14]: 1.474
Complete ([1]; NCI-H292 cells, complete media): 1.26
Cholesterol-free media + simvastatin (0.04 μM) [2, 15]: 1.251
Complete Media [2, 16]: 0.9046
Difference [2, 12]: −0.35

CCCNC(C)C(=O)Nc1ccccc1C (stereo not drawn) [Prilocaine]
Difference [1, 3]: −0.49
Cholesterol-free [1, 4]: 1.366
Complete [1, 5]: 0.8796
Cholesterol-free media + simvastatin (0.04 μM) [2, 28]: 1.231
Complete Media ([2]; drug in complete media): 0.9727
Difference [2, 12]: −0.26

CCC1(c2ccccc2)C(=O)NCNC1=O [Primidone]
Difference [1, 3]: −0.48
Cholesterol-free [1, 4]: 1.462
Complete [1, 5]: 0.9788
Cholesterol-free media + simvastatin (0.04 μM) [2, 6]: 0.9863
Complete Media [2, 7]: 0.8914
Difference [2, 12]: −0.09
